Results taken from patent US20040023862A1, “Uses of bombesin receptor 3” (SmithKline Beedham p. l. c., priority 2000, published 2004).
Residue numbers refer to the chain shown, from its start. Non-standard residues stand in square brackets, D forms with d. Residues, ends and D or L forms follow the SMILES beside them. No end group written: not given here. *: point of attachment. pGlu = O=C1CC[C@@H](C(=O)O)N1; Nle = CCCC[C@H](N)C(=O)O; βAla = NCCC(=O)O; NHPr = CCCN*

T1: human bombesin receptor 3 (BRS3), endogenous in NCI-N417 cells (human) (UniProt P32247)
T1 sequence: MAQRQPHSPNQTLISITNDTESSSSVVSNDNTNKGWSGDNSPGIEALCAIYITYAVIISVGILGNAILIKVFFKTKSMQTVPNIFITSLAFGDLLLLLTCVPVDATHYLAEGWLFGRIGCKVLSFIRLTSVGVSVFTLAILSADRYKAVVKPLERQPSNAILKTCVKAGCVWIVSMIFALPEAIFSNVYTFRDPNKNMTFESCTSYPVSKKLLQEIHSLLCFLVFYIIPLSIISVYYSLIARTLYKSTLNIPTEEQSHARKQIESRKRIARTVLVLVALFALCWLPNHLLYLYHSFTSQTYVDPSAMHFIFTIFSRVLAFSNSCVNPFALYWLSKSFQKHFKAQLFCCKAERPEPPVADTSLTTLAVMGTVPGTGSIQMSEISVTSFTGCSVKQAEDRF

T2: endogenous human BRS-3 in NCI-N417 cells (Homo sapiens, UniProt P32247)
T2 construct: Agonist Pharmacology at the Endogenous Human BRS-3 in NCI-N417 Cells; endogenous in cells; host or cells: NCI-N417 cells
T2 sequence (P32247 1-399): T1 sequence with A139T

T3: BRS3 (Homo sapiens, UniProt P32247)
T3 sequence (P32247 1-399): T1 sequence with A139T


Molecular target: T1, human bombesin receptor 3 (BRS3), endogenous in NCI-N417 cells (human)
Assay: cell-based or functional assay
Conditions: not given

Row | Molecule | pEG50 [sic, pEC50]; intracellular calcium (Fluo-3AM fluorescence, FLIPR) in NCI-N417 cells | Efficacy; intracellular calcium (FLIPR) in NCI-N417 cells [%]
1 | [D-Phe^6, βAla^11, Phe^13, Nle^14]Bombesin(6-14) (peptide) | 7.88 -log10(M) | –
2 | [D-Phe^1, Nle^9]litorin (peptide) | 5.96 -log10(M) | –
3 | Bombesin (peptide) | < 5 -log10(M) | 23
4 | [D-Phe^6]BN(6-13) propylamide (peptide) | 5.86 -log10(M) | –
5 | [D-Phe^6, Phe^13]BN(6-13) propylamide (peptide) | 6.83 -log10(M) | –
6 | PG-L (peptide) | 5.54 -log10(M) | –
7 | [D-Tyr^6, βAla^11, Phe^13, Nle^14]Bombesin(6-14) (peptide) | 8.02 -log10(M) | –
8 | Ranantensin (peptide) | 5.59 -log10(M) | –
9 | neuromedin C (NMC) (peptide) | – | 20
10 | VPLPAGGGTVLTKMYPRGNHWAVGHLM (peptide, UniProt P07492 24-50, looked up, species assumed, ends and bridges not checked) [gastrin-releasing peptide (GRP)] | < 5 -log10(M) | 23
11 | Ac-LWATGHFM (peptide, UniProt P08949 49-56, looked up, species assumed, ends and bridges not checked) [AcNMB(3-10)] | 5.73 -log10(M) | –
12 | GNLWATGHFM (peptide, UniProt P08949 47-56, looked up, species assumed, ends and bridges not checked) [neuromedin B (NMB)] | 5.65 -log10(M) | –

Molecular target: T2, endogenous human BRS-3 in NCI-N417 cells
Assay: Agonist pharmacology, FLIPR intracellular calcium (Fluo-3AM) in NCI-N417 cells
Format: cell-based
Conditions: not given
Procedure: Agonist Pharmacology at the Endogenous Human BRS-3 in NCI-N417 Cells
NCI-N417 cells were seeded into Costar 96 well black walled plates (30,000 cells per well), cultured overnight in RPMI 1640 medium containing 10% foetal calf serum and 1% L-glutamine, and then loaded with the cytoplasmic calcium indicator Fluo-3AM (4 μM) in the presence of 2.5 mM probenecid at 37° C. for 60 min. The cells were then washed 4× with, and finally resuspended in, Tyrode's medium containing 2.5 mM probenecid. Fluorescence was then monitored using a FLIPR (λEX=488 nm, λEM=540 nm) before and after the addition of various ligands (10 pM-10 μM), as described previously (Smart et al (1999). Br. J. Pharmacol. 128:1-4).

Row | Molecule | EC50 [nM]
13 | CCCC[C@H](NC(=O)[C@H](Cc1ccccc1)NC(=O)[C@H](Cc1c[nH]cn1)NC(=O)CNC(=O)[C@@H](NC(=O)[C@H](C)NC(=O)[C@H](Cc1c[nH]c2ccccc12)NC(=O)[C@H](CCC(N)=O)NC(=O)[C@H](N)Cc1ccccc1)C(C)C)C(N)=O [[D-Phe^1, Nle^9]litorin] | 1100
14 | CCCNC(=O)[C@H](CC(C)C)NC(=O)[C@H](Cc1c[nH]cn1)NC(=O)CNC(=O)[C@@H](NC(=O)[C@H](C)NC(=O)[C@H](Cc1c[nH]c2ccccc12)NC(=O)[C@H](CCC(N)=O)NC(=O)[C@H](N)Cc1ccccc1)C(C)C [[D-Phe^6]BN(6-13) propylaniide] | 1380
15 | CCCNC(=O)[C@H](Cc1ccccc1)NC(=O)[C@H](Cc1c[nH]cn1)NC(=O)CNC(=O)[C@@H](NC(=O)[C@H](C)NC(=O)[C@H](Cc1c[nH]c2ccccc12)NC(=O)[C@H](CCC(N)=O)NC(=O)[C@H](N)Cc1ccccc1)C(C)C [[D-Phe^6, Phe^13]BN(6-13) propylamide] (H-[dF]QWAVGHF-NHPr; N-terminus assumed) | 148

Same assay, conditions: calcium mobilisation, FLIPR, NCI-N417 cells, ligands 10 pM-10 μM; read-out: pEG50 (the source's name) (converted)

Row | Molecule | EC50 [nM]
16 | CCCC[C@H](NC(=O)[C@H](Cc1ccccc1)NC(=O)[C@H](Cc1cnc[nH]1)NC(=O)CCNC(=O)[C@@H](NC(=O)[C@H](C)NC(=O)[C@H](Cc1c[nH]c2ccccc12)NC(=O)[C@H](CCC(N)=O)NC(=O)[C@H](N)Cc1ccc(O)cc1)C(C)C)C(N)=O [[D-Tyr^6, βAla^11, Phe^13, Nle^14]Bombesin(6-14)] (H-[dY]QWAV[βAla]HF[Nle]-NH2) | 9.55

Same assay, conditions: calcium mobilisation, FLIPR, NCI-N417 cells; at 10 μM

Row | Molecule | Efficacy [% at 10 μM]
17 | CSCC[C@H](NC(=O)[C@H](CC(C)C)NC(=O)[C@H](Cc1cnc[nH]1)NC(=O)CNC(=O)[C@@H](NC(=O)[C@H](C)NC(=O)[C@H](Cc1c[nH]c2ccccc12)NC(=O)[C@H](CCC(N)=O)NC(=O)[C@H](CC(N)=O)NC(=O)CNC(=O)[C@H](CC(C)C)NC(=O)[C@H](CCCN=C(N)N)NC(=O)[C@H](CCC(N)=O)NC(=O)[C@@H]1CCC(=O)N1)C(C)C)C(N)=O [Bombesin] | 23

Same assay, conditions: calcium mobilisation, FLIPR, NCI-N417 cells; efficacy in words

Row | Molecule | Efficacy
18 | CSCC[C@H](NC(=O)[C@H](Cc1ccccc1)NC(=O)[C@H](Cc1c[nH]cn1)NC(=O)CNC(=O)[C@@H](NC(=O)[C@H](C)NC(=O)[C@H](Cc1c[nH]c2ccccc12)NC(=O)[C@H](CCC(N)=O)NC(=O)[C@@H]1CCCN1C(=O)[C@@H](NC(=O)[C@@H]1CCC(=O)N1)C(C)C)C(C)C)C(N)=O [Ranantensin] ([pGlu]VPQWAVGHFM-NH2; C-terminus assumed) | full
19 | CCCC[C@H](NC(=O)[C@H](Cc1ccccc1)NC(=O)[C@H](Cc1c[nH]cn1)NC(=O)CCNC(=O)[C@@H](NC(=O)[C@H](C)NC(=O)[C@H](Cc1c[nH]c2ccccc12)NC(=O)[C@H](CCC(N)=O)NC(=O)[C@H](N)Cc1ccc(O)cc1)C(C)C)C(N)=O [[D-Tyr^6, βAla^11, Phe^13, Nle^14]Bombesin(6-14)] (H-[dY]QWAV[βAla]HF[Nle]-NH2) | full
20 | CCCC[C@H](NC(=O)[C@H](Cc1ccccc1)NC(=O)[C@H](Cc1c[nH]cn1)NC(=O)CNC(=O)[C@@H](NC(=O)[C@H](C)NC(=O)[C@H](Cc1c[nH]c2ccccc12)NC(=O)[C@H](CCC(N)=O)NC(=O)[C@H](N)Cc1ccccc1)C(C)C)C(N)=O [[D-Phe^1, Nle^9]litorin] | full
21 | AcNMB(3-10) | full
22 | neuromedin B [NMB] | full
23 | CCCNC(=O)[C@H](CC(C)C)NC(=O)[C@H](Cc1c[nH]cn1)NC(=O)CNC(=O)[C@@H](NC(=O)[C@H](C)NC(=O)[C@H](Cc1c[nH]c2ccccc12)NC(=O)[C@H](CCC(N)=O)NC(=O)[C@H](N)Cc1ccccc1)C(C)C [[D-Phe^6]BN(6-13) propylaniide] | full
24 | CCCNC(=O)[C@H](Cc1ccccc1)NC(=O)[C@H](Cc1c[nH]cn1)NC(=O)CNC(=O)[C@@H](NC(=O)[C@H](C)NC(=O)[C@H](Cc1c[nH]c2ccccc12)NC(=O)[C@H](CCC(N)=O)NC(=O)[C@H](N)Cc1ccccc1)C(C)C [[D-Phe^6, Phe^13]BN(6-13) propylamide] (H-[dF]QWAVGHF-NHPr; N-terminus assumed) | full
25 | CSCC[C@H](NC(=O)[C@H](Cc1ccccc1)NC(=O)[C@H](Cc1c[nH]cn1)NC(=O)CNC(=O)[C@@H](NC(=O)[C@H](C)NC(=O)[C@H](Cc1c[nH]c2ccccc12)NC(=O)[C@H](CCC(N)=O)NC(=O)[C@@H]1CCCN1C(=O)CNC(=O)CNC(=O)CNC(=O)[C@@H]1CCC(=O)N1)C(C)C)C(N)=O [PG-L] ([pGlu]GGGPQWAVGHFM-NH2; C-terminus assumed) | full

Molecular target: T3, BRS3
Assay: not given
Conditions: background statement, in words; cited from earlier work

Row | Molecule | affinity at BRS3
26 | CSCC[C@H](NC(=O)[C@H](CC(C)C)NC(=O)[C@H](Cc1c[nH]cn1)NC(=O)CNC(=O)[C@@H](NC(=O)[C@H](C)NC(=O)[C@H](Cc1c[nH]c2ccccc12)NC(=O)[C@H](Cc1c[nH]cn1)NC(=O)[C@H](CC(N)=O)NC(=O)CNC(=O)[C@H](CCCNC(=N)N)NC(=O)[C@@H]1CCCN1C(=O)[C@H](Cc1ccc(O)cc1)NC(=O)[C@H](CCSC)NC(=O)[C@H](CCCCN)NC(=O)[C@@H](NC(=O)[C@H](CC(C)C)NC(=O)[C@@H](NC(=O)[C@@H](NC(=O)CNC(=O)CNC(=O)CNC(=O)[C@H](C)NC(=O)[C@@H]1CCCN1C(=O)[C@H](CC(C)C)NC(=O)[C@@H]1CCCN1C(=O)[C@@H](N)C(C)C)[C@@H](C)O)C(C)C)[C@@H](C)O)C(C)C)C(N)=O [GRP, gastrin-releasing peptide] | very low (high μM) affinity
27 | neuromedin B [NMB] | very low (high μM) affinity
